{
  "source": "paper PMC6801822",
  "about": "“The Bactericidal Activity of Temporin Analogues Against Methicillin Resistant Staphylococcus aureus” (International Journal of Molecular Sciences, 2019)",
  "key": {"S. aureus USA300 [1]": {"system": "S. aureus USA300", "experiment": "microbe, parasite or virus in culture", "conditions": "Staphylococcus aureus, MRSA / USA300, 24 h", "protocol": "(§1) Antimicrobial activity of peptides was analyzed through determination of MIC parameter according to the standard microdilution technique performed on 96-well plates. Mueller-Hinton broth (MHB, Sigma Aldrich, St. Louis, MO, USA) was used as the working medium for all bacterial strains. Briefly, inoculum was prepared from freshly grown cultures of bacteria being at their exponential phase of growth. Each well of 96-well plates containing 100 µL of serially diluted peptides in PBS at desired concentration was inoculated with 100 µL of 10^5 CFU/mL of bacterial suspension. Then plates were incubated overnight 37 °C and absorbance was read at 600 nm after 24 h. Wells without peptide were treated as the positive control, while uninoculated MHB was defined as the negative control. All measurements were run in triplicates."}, "[2]": {"conditions": "cited from earlier work", "excerpt": "The efficient antibacterial activity of the DAL-PEG-DK5 conjugate may be due to the fact that it has a higher cationic charge than DK5 (+7 vs. +6, respectively). However, a α-helicity must also play an important role in this case. According to a common view about the mechanism underlying the antimicrobial activity of AMPs, formation of hel ..."}, "S. aureus USA300 [3]": {"system": "S. aureus USA300", "conditions": "for MIC: USA300, 24 h", "protocol": "as §1"}, "[4]": {"system": "intracellular MRSA clinical isolate", "conditions": "cited from earlier work; for MIC: MRSA clinical isolate", "excerpt": "Cumulatively, these findings encouraged us to test the ability of the peptide conjugate to kill invasive intracellular MRSA. […] In addition, ..."}, "S. aureus ATCC 25923": {"system": "S. aureus ATCC 25923", "conditions": "ATCC 25923, 24 h", "protocol": "as §1"}, "S. aureus Newman": {"system": "S. aureus Newman", "conditions": "Newman, 24 h", "protocol": "as §1"}, "[5]": {"system": "S. epidermidis ATCC 12228", "conditions": "ATCC 12228, 24 h", "protocol": "as §1"}},
  "note": "Where two headings read alike, the source gives them in different places. Non-standard residues stand in square brackets, D forms with d. Residues, ends and D or L forms follow the SMILES beside them. AEEA = NCCOCCOCC(=O)O; βAla = NCCC(=O)O",
  "data": [
    {"compound": "CC(=O)NC[C@H]1CN(c2ccc(N3CCOCC3)c(F)c2)C(=O)O1", "note": "[Linezolid, linezolid]", "values": [
      {"measurement": "MIC", "setting": "S. aureus USA300 [1]", "value": 1, "unit": "mg/L"}
    ]},
    {"compound": "CC[C@H](C)[C@H](N)C(=O)N[C@@H](CCCCN)C(=O)N[C@@H](CCCCN)C(=O)N[C@H](C(=O)N[C@@H](CC(C)C)C(=O)N[C@@H](CO)C(=O)N[C@H](CCCCN)C(=O)N[C@H](C(=O)N[C@@H](CCCCN)C(=O)N[C@@H](CCCCN)C(=O)N[C@@H](CC(C)C)C(=O)N[C@@H](CC(C)C)C(N)=O)[C@@H](C)CC)[C@@H](C)CC", "note": "[DK5] (H-IKKILS[dK]IKKLL-NH2; N-terminus assumed)", "values": [
      {"measurement": "cationic charge", "setting": "[2]", "value": "+6"},
      {"measurement": "MIC", "setting": "S. aureus USA300 [3]", "value": ">190", "unit": "mg/L"}
    ]},
    {"compound": "temporin A", "values": [
      {"measurement": "MIC", "setting": "[4]", "value": 8, "unit": "µM"},
      {"measurement": "killed intracellular MRSA", "setting": "[4]; at 2 × MIC", "value": 20, "unit": "%"}
    ]},
    {"compound": "CC[C@H](C)[C@H](NC(=O)COCCOCCNC(=O)[C@H](Cc1c[nH]cn1)NC(=O)CCNC(=O)[C@H](Cc1c[nH]cn1)NC(=O)CCNC(=O)[C@H](Cc1c[nH]cn1)NC(=O)CCN)C(=O)N[C@@H](CCCCN)C(=O)N[C@@H](CCCCN)C(=O)N[C@H](C(=O)N[C@@H](CC(C)C)C(=O)N[C@@H](CO)C(=O)N[C@H](CCCCN)C(=O)N[C@H](C(=O)N[C@@H](CCCCN)C(=O)N[C@@H](CCCCN)C(=O)N[C@@H](CC(C)C)C(=O)N[C@@H](CC(C)C)C(N)=O)[C@@H](C)CC)[C@@H](C)CC", "note": "[CAR3-PEG-DK5] (H-[βAla]H[βAla]H[βAla]H[AEEA]IKKILS[dK]IKKLL-NH2; N-terminus assumed)", "values": [
      {"measurement": "MIC", "setting": "S. aureus ATCC 25923", "value": ">190", "unit": "mg/L"},
      {"measurement": "MIC", "setting": "S. aureus USA300 [3]", "value": ">190", "unit": "mg/L"},
      {"measurement": "MIC", "setting": "S. aureus Newman", "value": ">190", "unit": "mg/L"},
      {"measurement": "MIC", "setting": "[5]", "value": 110, "unit": "mg/L"}
    ]},
    {"compound": "CC[C@H](C)[C@H](NC(=O)COCCOCCNC(=O)CNC(=O)[C@@H]1CCCN1C(=O)[C@H](CCC(=O)O)NC(=O)[C@H](CC(C)C)NC(=O)CNC(=O)[C@@H](N)CCC(=O)O)C(=O)N[C@@H](CCCCN)C(=O)N[C@@H](CCCCN)C(=O)N[C@H](C(=O)N[C@@H](CC(C)C)C(=O)N[C@@H](CO)C(=O)N[C@H](CCCCN)C(=O)N[C@H](C(=O)N[C@@H](CCCCN)C(=O)N[C@@H](CCCCN)C(=O)N[C@@H](CC(C)C)C(=O)N[C@@H](CC(C)C)C(N)=O)[C@@H](C)CC)[C@@H](C)CC", "note": "[COMB1-PEG-DK5] (H-EGLEPG[AEEA]IKKILS[dK]IKKLL-NH2; N-terminus assumed)", "values": [
      {"measurement": "MIC", "setting": "S. aureus ATCC 25923", "value": ">190", "unit": "mg/L"},
      {"measurement": "MIC", "setting": "S. aureus USA300 [3]", "value": ">190", "unit": "mg/L"},
      {"measurement": "MIC", "setting": "S. aureus Newman", "value": ">190", "unit": "mg/L"},
      {"measurement": "MIC", "setting": "[5]", "value": ">190", "unit": "mg/L"}
    ]},
    {"compound": "temporin B", "values": [
      {"measurement": "MIC", "setting": "[4]", "value": 16, "unit": "µM"},
      {"measurement": "killed intracellular MRSA", "setting": "[4]; at 4 × MIC", "value": 40, "unit": "%"}
    ]},
    {"compound": "CN[C@H](CC(C)C)C(=O)N[C@H]1C(=O)N[C@@H](CC(N)=O)C(=O)N[C@H]2C(=O)N[C@H]3C(=O)N[C@H](C(=O)N[C@H](C(=O)O)c4cc(O)cc(O)c4-c4cc3ccc4O)[C@H](O)c3ccc(c(Cl)c3)Oc3cc2cc(c3O[C@@H]2O[C@H](CO)[C@@H](O)[C@H](O)[C@H]2O[C@H]2C[C@](C)(N)[C@H](O)[C@H](C)O2)Oc2ccc(cc2Cl)[C@H]1O", "note": "[Vancomycin, vancomycin]", "values": [
      {"measurement": "MIC", "setting": "S. aureus USA300 [1]", "value": 1, "unit": "mg/L"}
    ]},
    {"compound": "CC[C@H](C)[C@H](NC(=O)COCCOCCNC(=O)[C@H](Cc1c[nH]cn1)NC(=O)CCN)C(=O)N[C@@H](CCCCN)C(=O)N[C@@H](CCCCN)C(=O)N[C@H](C(=O)N[C@@H](CC(C)C)C(=O)N[C@@H](CO)C(=O)N[C@H](CCCCN)C(=O)N[C@H](C(=O)N[C@@H](CCCCN)C(=O)N[C@@H](CCCCN)C(=O)N[C@@H](CC(C)C)C(=O)N[C@@H](CC(C)C)C(N)=O)[C@@H](C)CC)[C@@H](C)CC", "note": "[CAR-PEG-DK5] (H-[βAla]H[AEEA]IKKILS[dK]IKKLL-NH2; N-terminus assumed)", "values": [
      {"measurement": "MIC", "setting": "S. aureus ATCC 25923", "value": ">190", "unit": "mg/L"},
      {"measurement": "MIC", "setting": "S. aureus USA300 [3]", "value": ">190", "unit": "mg/L"},
      {"measurement": "MIC", "setting": "S. aureus Newman", "value": ">190", "unit": "mg/L"},
      {"measurement": "MIC", "setting": "[5]", "value": 40, "unit": "mg/L"}
    ]},
    {"compound": "CC[C@H](C)[C@H](N)C(=O)N[C@@H](CCCCN)C(=O)N[C@@H](CCCCN)C(=O)N[C@H](C(=O)N[C@@H](CC(C)C)C(=O)N[C@@H](CO)C(=O)N[C@H](CCCCN)C(=O)N[C@H](C(=O)N[C@@H](CCCCN)C(=O)N[C@@H](CCCCN)C(=O)N[C@@H](CC(C)C)C(=O)N[C@@H](CC(C)C)C(=O)NCCOCCOCC(=O)N[C@@H](Cc1ccc(O)cc1)C(=O)N[C@H](C)C(=O)NCC(=O)N[C@@H](Cc1ccccc1)C(=O)N[C@@H](CC(C)C)C(=O)N[C@@H](CCCNC(=N)N)C(N)=O)[C@@H](C)CC)[C@@H](C)CC", "note": "[DK5-PEG-DAL] (H-IKKILS[dK]IKKLL[AEEA]Y[dA]GFLR-NH2; N-terminus and C-terminus assumed)", "values": [
      {"measurement": "α-helical content", "setting": "[2]; circular dichroism, 30 mM SDS in water", "value": 20, "unit": "%"},
      {"measurement": "inhibition of USA300 growth relative to DAL-PEG-DK5", "setting": "S. aureus USA300 [3]; comparison of MIC 160 vs 40 μg/mL", "value": "four times less"}
    ]}
  ]
}
